This note sets out measurements from patent US20250074891A1 (Anaxis Pharma Pty Ltd., priority 2021, published 2025).

Holding throughout (details): Table 35
One assay addresses MLKL (full length) (Homo sapiens (Human), UniProt Q8NB16). The assay can be described thus: KINOMEscan binding assay, MLKL (full length). As to the method:
(§1) Kinase assays. For most assays, kinase-tagged T7 phage strains were grown in parallel in 24-well blocks in an E. coli host derived from the BL21 strain. E. coli were grown to log-phase and infected with T7 phage from a frozen stock (multiplicity of infection=0.4) and incubated with shaking at 32° C. until lysis (90-150 minutes).
(§2) The Hill Slope was set to −1.

The target in a further assay is RIP3 (Homo sapiens (Human), UniProt Q9Y572). The assay can be described thus: KINOMEscan binding assay, RIP3. On the procedure: as §1, §2
Chain of RIP3 (Q9Y572 whole entry): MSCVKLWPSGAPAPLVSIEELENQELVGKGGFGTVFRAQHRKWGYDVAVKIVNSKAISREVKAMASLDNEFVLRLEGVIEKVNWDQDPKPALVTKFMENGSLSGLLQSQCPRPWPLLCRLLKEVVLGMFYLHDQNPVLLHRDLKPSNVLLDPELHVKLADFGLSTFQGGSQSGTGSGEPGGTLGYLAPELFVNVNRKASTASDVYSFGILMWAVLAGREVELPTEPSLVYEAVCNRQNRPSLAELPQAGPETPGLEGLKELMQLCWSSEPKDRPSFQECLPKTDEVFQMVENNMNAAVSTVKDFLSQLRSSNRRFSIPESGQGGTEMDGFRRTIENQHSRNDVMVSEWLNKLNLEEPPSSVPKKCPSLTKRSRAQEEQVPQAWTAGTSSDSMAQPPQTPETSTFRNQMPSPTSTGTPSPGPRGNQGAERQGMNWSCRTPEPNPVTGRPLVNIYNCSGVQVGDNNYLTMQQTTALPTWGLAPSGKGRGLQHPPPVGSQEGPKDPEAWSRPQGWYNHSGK
The next assay concerns the target RIP1 (Homo sapiens (Human), UniProt Q13546). Briefly: KINOMEscan binding assay, RIP1.

Chain of MLKL (full length) (Q8NB16 whole entry): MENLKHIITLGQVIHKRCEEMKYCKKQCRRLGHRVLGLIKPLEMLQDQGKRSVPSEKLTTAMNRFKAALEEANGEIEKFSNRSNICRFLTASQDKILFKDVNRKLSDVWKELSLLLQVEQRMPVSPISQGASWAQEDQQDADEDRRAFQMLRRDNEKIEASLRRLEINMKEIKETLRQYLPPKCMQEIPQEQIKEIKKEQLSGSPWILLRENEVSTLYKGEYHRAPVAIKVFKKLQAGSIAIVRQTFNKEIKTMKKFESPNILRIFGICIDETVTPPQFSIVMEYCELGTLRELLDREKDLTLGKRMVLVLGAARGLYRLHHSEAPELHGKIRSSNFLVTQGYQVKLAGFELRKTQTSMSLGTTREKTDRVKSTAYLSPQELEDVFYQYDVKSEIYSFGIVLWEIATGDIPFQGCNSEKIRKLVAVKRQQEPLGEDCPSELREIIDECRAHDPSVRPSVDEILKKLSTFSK
Chain of RIP1 (Q13546 whole entry): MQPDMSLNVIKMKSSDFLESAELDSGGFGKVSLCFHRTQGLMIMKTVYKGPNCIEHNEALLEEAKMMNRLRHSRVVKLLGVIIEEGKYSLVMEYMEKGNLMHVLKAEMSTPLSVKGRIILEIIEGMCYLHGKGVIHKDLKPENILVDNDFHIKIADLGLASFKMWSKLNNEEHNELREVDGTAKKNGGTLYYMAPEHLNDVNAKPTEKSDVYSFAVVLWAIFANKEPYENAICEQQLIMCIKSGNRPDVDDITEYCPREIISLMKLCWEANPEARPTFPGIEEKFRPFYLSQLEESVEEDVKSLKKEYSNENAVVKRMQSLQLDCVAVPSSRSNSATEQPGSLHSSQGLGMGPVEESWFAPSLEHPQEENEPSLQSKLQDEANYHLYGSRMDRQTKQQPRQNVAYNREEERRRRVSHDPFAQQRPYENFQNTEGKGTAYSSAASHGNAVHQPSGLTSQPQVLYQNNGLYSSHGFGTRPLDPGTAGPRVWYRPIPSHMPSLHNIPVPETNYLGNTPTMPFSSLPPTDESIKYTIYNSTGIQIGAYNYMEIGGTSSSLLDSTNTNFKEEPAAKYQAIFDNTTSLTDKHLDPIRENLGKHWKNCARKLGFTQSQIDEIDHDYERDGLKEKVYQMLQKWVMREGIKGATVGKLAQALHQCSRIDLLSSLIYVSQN

For orientation: Kd means the equilibrium constant for the complex coming apart. In the case of `NC(=O)c1c(-c2ccc(NS(=O)(=O)CCC(F)F)cc2)n[nH]c1Nc1cnccn1` [Compound 23, 3-(4-((3,3-difluoropropyl)sulfonamido)phenyl)-5-(pyrazin-2-ylamino)-1H-pyrazole-4-carboxamide], the values for the Kd at MLKL (full length), on RIP3 and at RIP1 were less than 0.01 µM, greater than 30 µM and greater than 30 µM, respectively.
In the case of `CCS(=O)(=O)Nc1ccc(-c2n[nH]c(Nc3cnccn3)c2C(N)=O)cc1OCCc1ccc(F)cc1` [Compound 24], the Kd at MLKL (full length) was less than 0.01 µM; at RIP3, greater than 30 µM; at RIP1, greater than 30 µM.
On to `CCS(=O)(=O)Nc1ccc(-c2n[nH]c(Nc3cnccn3)c2C(N)=O)cc1OCc1ccccc1` [Compound 25, 3-(3-(benzyloxy)-4-(ethylsulfonamido)phenyl)-5-(pyrazin-2-ylamino)-1H-pyrazole-4-carboxamide], for which the values for the equilibrium dissociation constant (Kd) on MLKL (full length), at RIP3 and at RIP1 were less than 0.01 µM, greater than 30 µM and greater than 30 µM, respectively.
On to `CCS(=O)(=O)Nc1ccc(-c2n[nH]c(Nc3cnccn3)c2C(N)=O)cc1OCc1cccc(F)c1` [Compound 26, 3-(4-(ethylsulfonamido)-3-((3-fluorobenzyl)oxy)phenyl)-5-(pyrazin-2-ylamino)-1H-pyrazole-4-carboxamide], for which the results for the Kd at MLKL (full length), on RIP3 and at RIP1 were less than 0.01 µM, greater than 30 µM and greater than 30 µM, respectively.
Consider `CCS(=O)(=O)Nc1ccc(-c2n[nH]c(Nc3ccccn3)c2C(N)=O)cc1OCc1ccncc1` [Compound 27, 3-(4-(ethylsulfon-amido)-3-(pyridin-4-ylmethoxy)phenyl)-5-(pyridin-2-ylamino)-1H-pyrazole-4-carboxamide], for which the Kd is less than 0.01 µM on MLKL (full length), greater than 30 µM at RIP3 and greater than 30 µM at RIP1.
Regarding `CCS(=O)(=O)Nc1ccc(-c2n[nH]c(Nc3cnccn3)c2C(N)=O)cc1OCc1ccncc1` [Compound 28, 3-(4-(ethylsulfonamido)-3-(226yridine-4-ylmethoxy)phenyl)-5-(pyrazin-2-ylamino)-1H-pyrazole-4-carboxamide], the values for the Kd at MLKL (full length), at RIP3 and on RIP1 were less than 0.01 µM, greater than 30 µM and greater than 30 µM, respectively.
Take `N#CCS(=O)(=O)Nc1ccc(-c2n[nH]c(Nc3cccc(C(F)(F)F)n3)c2C(N)=O)cc1` [Compound 29, 3-(4-((cyanomethyl)sulfonamido)phenyl)-5-((6-(trifluoromethyl)pyridin-2-yl)amino)-1H-pyrazole-4-carboxamide]: the Kd at MLKL (full length) is less than 0.01 µM; on RIP3, greater than 30 µM; at RIP1, greater than 30 µM.
With `CCS(=O)(=O)Nc1ccc(-c2n[nH]c(Nc3ccccn3)c2C(N)=O)cc1OCc1ccc(F)cc1` [Compound 30, 3-(4-(ethylsulfon-amido)-3-((4-fluorobenzyl)oxy)phenyl)-5-(pyridin-2-ylamino)-1H-pyrazole-4-carboxamide], the Kd at MLKL (full length) was less than 0.01 µM; on RIP3 it was greater than 30 µM; at RIP1, greater than 30 µM.
`CCS(=O)(=O)Nc1ccc(-c2n[nH]c(Nc3ccccn3)c2C(N)=O)cc1OCc1cccnc1` [Compound 31, 3-(4-(ethylsulfon-amido)-3-(pyridin-3-ylmethoxy)phenyl)-5-(pyridin-2-ylamino)-1H-pyrazole-4-carboxamide]: the values for the Kd at MLKL (full length), at RIP3 and at RIP1 were less than 0.01 µM, greater than 30 µM and greater than 30 µM, respectively.
`CCS(=O)(=O)Nc1ccc(-c2n[nH]c(Nc3cnccn3)c2C(N)=O)cc1OCc1cccnc1` [Compound 32, 3-(4-(ethylsulfonamido)-3-(226yridine-3-ylmethoxy)phenyl)-5-(pyrazin-2-ylamino)-1H-pyrazole-4-carboxamide]: the values for the Kd on MLKL (full length), on RIP3 and on RIP1 were less than 0.01 µM, greater than 30 µM and greater than 30 µM, respectively.
In the case of `CCS(=O)(=O)Nc1ccc(-c2n[nH]c(Nc3cnc(C(C)C)cn3)c2C(N)=O)cc1OCc1ccc(F)cc1` [Compound 34, 3-(4-(ethylsulfonamido)-3-((4-fluorobenzyl)oxy)phenyl) 5-((5-isopropylpyrazin-2-yl)amino)-1H-pyrazole-4-carboxamide], the results for the Kd at MLKL (full length), at RIP3 and at RIP1 were less than 0.01 µM, greater than 30 µM and greater than 30 µM, respectively.
As to `CCS(=O)(=O)Nc1ccc(-c2n[nH]c(Nc3cnccn3)c2C(N)=O)cc1OCC1CCCC1` [Compound 40, 3-(3-(cyclopentyl-methoxy)-4-(ethylsulfonamido)phenyl)-5-(pyrazin-2-ylamino)-1H-pyrazole-4-carboxamide], the Kd on MLKL (full length) is less than 0.01 µM; at RIP3 it was greater than 30 µM; at RIP1 it was greater than 30 µM.
As to `CCS(=O)(=O)Nc1ccc(-c2n[nH]c(Nc3cnccn3)c2C(N)=O)cc1OCc1cccc(Cl)c1` [Compound 41, 3-(3-((3-chlorobenzyl)oxy)-4-(ethylsulfonamido)phenyl)-5-(pyrazin-2-ylamino)-1H-pyrazole-4-carboxamide], the results for the equilibrium dissociation constant (Kd) on MLKL (full length), at RIP3 and at RIP1 were less than 0.01 µM, greater than 30 µM and greater than 30 µM, respectively.
As to `CCS(=O)(=O)Nc1ccc(-c2n[nH]c(Nc3cnccn3)c2C(N)=O)cc1OCc1ccc(Cl)cc1` [Compound 42, 3-(3-((4-chlorobenzyl)oxy)-4-(ethylsulfonamido)phenyl)-5-(pyrazin-2-ylamino)-1H-pyrazole-4-carboxamide], the Kd is less than 0.01 µM on MLKL (full length), greater than 30 µM at RIP3 and greater than 30 µM at RIP1.
`CCS(=O)(=O)Nc1ccc(-c2n[nH]c(Nc3cnccn3)c2C(N)=O)cc1OCC1CCCCC1` [Compound 47, 3-(3-(cyclohexyl-methoxy)-4-(ethylsulfonamido)phenyl)-5-(pyrazin-2-ylamino)-1H-pyrazole-4-carboxamide]: the Kd on MLKL (full length) is less than 0.01 µM; at RIP3, greater than 30 µM; on RIP1 it was greater than 30 µM.
As for `NC(=O)c1c(-c2ccc(NS(=O)(=O)C(F)F)cc2)n[nH]c1Nc1ccccn1` [Compound 48, 3-(4-((difluoromethyl)sulfonamido)phenyl)-5-(pyridin-2-ylamino)-1H-pyrazole-4-carboxamide], the Kd at MLKL (full length) is less than 0.01 µM; at RIP3, greater than 30 µM; at RIP1 it was greater than 30 µM.
On to `CCS(=O)(=O)Nc1ccc(-c2n[nH]c(Nc3cnccn3)c2C(N)=O)cc1OCc1ccc(F)cc1` [Compound 62, 3-(4-(ethylsulfonamido)-3-((4-fluorobenzyl)oxy)phenyl) 5-(pyrazin-2-ylamino)-1H pyrazole-4-carboxamide], for which the Kd at MLKL (full length) is less than 0.01 µM; on RIP3, greater than 30 µM; at RIP1, greater than 30 µM.
As to `NC(=O)c1c(-c2ccc(NS(=O)(=O)C(F)F)cc2)n[nH]c1Nc1cnccn1` [Compound 63, 3-(4-((difluoromethyl)sulfonamido)phenyl)-5-(pyrazin-2-ylamino)-1H-pyrazole-4-carboxamide], the values for the Kd at MLKL (full length), at RIP3 and on RIP1 were less than 0.01 µM, greater than 30 µM and greater than 30 µM, respectively.
On to `CCS(=O)(=O)Nc1ccc(-c2n[nH]c(Nc3cnc4ccccc4n3)c2C(N)=O)cc1` [Compound 67, 3-(4-(ethylsulfonamido)phenyl)-5-(quinoxalin-2-ylamino)-1H-pyrazole-4-carboxamide], for which the Kd at MLKL (full length) is less than 0.01 µM; at RIP3 it was greater than 30 µM; on RIP1 it was greater than 30 µM.
For `NC(=O)c1c(-c2ccc(NS(=O)(=O)C3CC3)cc2)n[nH]c1Nc1cnccn1` [Compound 68, 3-(4-(cyclopropanesulfonamido)phenyl)-5-(pyrazin-2-ylamino)-1H-pyrazole-4-carboxamide], the Kd was less than 0.01 µM on MLKL (full length), greater than 30 µM at RIP3 and greater than 30 µM on RIP1.
